Where two headings read alike, the source gives them in different places.
System: H5V cells
Assay: Phototoxicity assay (PDT efficacy at two incubation times), neutral red survival
Type: cell-based, mouse
Settings: then 10 min illumination, 12 J/cm^2
Experimental: H5V cells (40×10^3/well) were cultured in 96-well plates for 24 h to ˜80% confluence. To determine phototoxicity, the culture medium was replaced with 100 μl/well medium, in the absence or presence of 10^−8 to 10^−6 M sensitizer, and incubated in the dark for 15 min or 3 h in the culture incubator. The plates (PDT group) were then placed in the light field at room temperature and illuminated from the bottom for 10 min (800>λ>650 nm, 12 J/cm^2). After illumination, the medium was changed to fresh culture medium. The cultures were then placed in the culture incubator and cell survival was determined 24 h later, using the neutral red survival assay described below.
Following 24 h post PDT the culture medium in the wells was replaced with 100 μl fresh medium containing 40 μg/ml neutral red. The plate was incubated for 1.5 h in a dark culture incubator. The medium was aspirated and the cells washed with 100 μl of solution containing 1% CaCl2 and 0.5% formaldehyde, which removes the unincorporated dye and fixes the cells to the substratum. The dye was then extracted from the cells into the supernatant upon addition of 100 μl 1% glacial acetic acid in 50% ethanol. After 1-2 min at room temperature, the optical density of the wells was determined in a microplate spectrophotometer using a 570 nm filter. After subtraction of assay blanks, net optical density was computed as the average value of triplicate determinations. Cell survival was calculated as the percent of the dye accumulated in the untreated control. To determine cell survival data was plotted against sensitizer concentration. These curves were then used to calculated LD50 values.
Following synthesis, the compounds described in the Examples 23 to 75 above were purified, divided into equal aliquots and lyophilized for storage (desiccated at −20° C.). The exact material content was determined by HPLC-diode array detection, and the PDT efficacy was evaluated at two incubation times as described in the experimental section.

[1] = 15 min incubation in the dark, read-out: IC50 15 min
[2] = 3 h incubation in the dark, read-out: IC50 3 hours

Compound	IC50 [1]	IC50 [2]
CC[C@H]1C2=NC(=Cc3c(C(C)=O)c(C)c4[n]3[Pd][n]3c(c(C)c(C(=O)NCCCCN)c3=C(CC(=O)OC)C3=NC(=C4)[C@@H](C)[C@@H]3CCC(=O)NCCCCN)=C2)[C@@H]1C [Compound 35, Palladium 3^1-oxo-15-methoxycarbonylmethyl-Rhodobacteriochlorin-13^1, 17^3-di(4-aminobutyl)amide]	1230 nM	210 nM
CC(=O)[O-].CC(=O)[O-].CC[C@H]1C2=NC(=Cc3c(C(C)=O)c(C)c4[n]3[Pd][n]3c(c(C)c(C(=O)NCC[N+](C)(C)C)c3=C(CC(=O)OC)C3=NC(=C4)[C@@H](C)[C@@H]3CCC(=O)NCC[N+](C)(C)C)=C2)[C@@H]1C [Compound 33, Palladium 3^1-oxo-15-methoxycarbonylmethyl-Rhodobacteriochlorin-13^1, 17^3-di(2-N^3-trimethylammoniumethyl)amide diacetate salt]	750 nM	450 nM
Palladium 3^1-oxo-15-methoxycarbonylmethyl-Rhodobacteriochlorin-13^1-(2-N^2-diethylaminoethyl)amide-17^3-(2,3-dihydroxy propyl)amide [Compound 62]	630 nM	190 nM
Palladium 3^1-oxo-15-methoxycarbonylmethyl-Rhodobacteriochlorin-13^1-(2,3-dihydroxypropyl)amide-17^3-(3-N-(2′-pyridyl)aminopropyl)amide [Compound 73]	380 nM	300 nM
CC[C@H]1C2=NC(=Cc3c(C(C)=O)c(C)c4[n]3[Pd][n]3c(c(C)c(C(=O)NCCN)c3=C(CC(=O)OC)C3=NC(=C4)[C@@H](C)[C@@H]3CCC(=O)NCCN)=C2)[C@@H]1C [Compound 10, Palladium 3^1-oxo-15-methoxycarbonylmethyl-Rhodobacteriochlorin-13^1, 17^3-di(2-aminoethyl)amide]	740 nM	240 nM
CCC1c2cc3[n-]c(c(CC(=O)OC)c4nc(cc5[n-]c(cc(n2)C1C)c(C(C)=O)c5C)C(C)C4CCC(=O)NCCCNCCCN)c(C(=O)NCCCNCCCN)c3C.[Pd+2] (stereo not shown) [Compound 42, Palladium 3^1-oxo-15-methoxycarbonylmethyl-Rhodobacteriochlorin-13^1, 17^3-di-(3-[(3-aminopropyl)amino]propyl)amide]	680 nM	280 nM
CC[C@H]1C2=NC(=Cc3c(C(C)=O)c(C)c4[n]3[Pd][n]3c(c(C)c(C(=O)NCCN(C)C)c3=C(CC(=O)OC)C3=NC(=C4)[C@@H](C)[C@@H]3CCC(=O)NCC(O)CO)=C2)[C@@H]1C (stereo partly shown) [Compound 50, Palladium 3^1-oxo-15-methoxycarbonylmethyl-Rhodobacteriochlorin-13^1-(2-N^2-dimethylaminoethyl)amide-17^3-(2,3-dihydroxypropyl)amide]	470 nM	170 nM
CC[C@H]1C2=NC(=Cc3c(C(C)=O)c(C)c4[n]3[Pd][n]3c(c(C)c(C(=O)NCC(O)CO)c3=C(CC(=O)OC)C3=NC(=C4)[C@@H](C)[C@@H]3CCC(=O)NCCNCCN(CC)CC)=C2)[C@@H]1C (stereo partly shown) [Compound 52, Palladium 3^1-oxo-15-methoxycarbonylmethyl-Rhodobacteriochlorin-13^1-(2,3-dihydroxypropyl)amide-17^3-(2-[(2-N^2-diethylaminoethyl)amino]ethyl)amide]	830 nM	890 nM
CC[C@H]1C2=NC(=Cc3c(C(C)=O)c(C)c4[n]3[Pd][n]3c(c(C)c(C(=O)NCCNCCN)c3=C(CC(=O)OC)C3=NC(=C4)[C@@H](C)[C@@H]3CCC(=O)NCCNCCN)=C2)[C@@H]1C [Compound 38, Palladium 3^1-oxo-15-methoxycarbonylmethyl-Rhodobacteriochlorin-13^1, 17^3-di-(2-[(2-aminoethyl)amino]ethyl)amide]	440 nM	160 nM
CC[C@H]1C2=NC(=Cc3c(C(C)=O)c(C)c4[n]3[Pd][n]3c(c(C)c(C(=O)NCCN(CC)CC)c3=C(CC(=O)OC)C3=NC(=C4)[C@@H](C)[C@@H]3CCC(=O)NCCN(CC)CC)=C2)[C@@H]1C [Compound 45, Palladium 3^1-oxo-15-methoxycarbonylmethyl-Rhodobacteriochlorin-13^1, 17^3-di(2-N^2-diethylaminoethyl)amide]	200 nM	180 nM
CC(=O)O.CC(=O)O.CC[C@H]1C2=NC(=Cc3c(C(C)=O)c(C)c4[n]3[Pd][n]3c(c(C)c(C(=O)NCC(O)CO)c3=C(CC(=O)OC)C3=NC(=C4)[C@@H](C)[C@@H]3CCC(=O)NCCCCNc3ccccn3)=C2)[C@@H]1C (stereo partly shown) [Compound 74, Palladium 3^1-oxo-15-methoxycarbonylmethyl-Rhodobacteriochlorin-13^1-(2,3-dihydroxypropyl)amide-17^3-(4-N-(2′-pyridyl)aminobutyl)amide]	740 nM	290 nM
CC[C@H]1C2=NC(=Cc3c(C(C)=O)c(C)c4[n]3[Pd][n]3c(c(C)c(C(=O)NCCNCCN)c3=C(CC(=O)OC)C3=NC(=C4)[C@@H](C)[C@@H]3CCC(=O)NCC(O)CO)=C2)[C@@H]1C (stereo partly shown) [Compound 55, Palladium 3^1-oxo-15-methoxycarbonylmethyl-Rhodobacteriochlorin-13^1-(2-[(2-aminoethyl)amino]ethyl)amide-17^3-(2,3-dihydroxypropyl)amide]	1070 nM	430 nM
CC[C@H]1C2=NC(=Cc3c(C(C)=O)c(C)c4[n]3[Pd][n]3c(c(C)c(C(=O)NCCN(CCN)CCN)c3=C(CC(=O)OC)C3=NC(=C4)[C@@H](C)[C@@H]3CCC(=O)NCCN(CCN)CCN)=C2)[C@@H]1C [Compound 43, Palladium 3^1-oxo-15-methoxycarbonylmethyl-Rhodobacteriochlorin-13^1,17^3-di([2-bis(2-aminoethyl)amino]ethyl)amide]	600 nM	180 nM
CC(=O)O.CC(=O)O.CC(=O)O.CC[C@H]1C2=NC(=Cc3c(C(C)=O)c(C)c4[n]3[Pd][n]3c(c(C)c(C(=O)NCCN(CCN)CCN)c3=C(CC(=O)OC)C3=NC(=C4)[C@@H](C)[C@@H]3CCC(=O)NCC(O)CO)=C2)[C@@H]1C (stereo partly shown) [Compound 59, Palladium 3^1-oxo-15-methoxycarbonylmethyl-Rhodobacteriochlorin-13^1-([2-bis(2-aminoethyl)amine]ethyl)amide-17^3-(2,3-dihydroxypropyl)amide]	450 nM	190 nM
CC(=O)O.CC[C@H]1C2=NC(=Cc3c(C(C)=O)c(C)c4[n]3[Pd][n]3c(c(C)c(C(=O)NCCCNC)c3=C(CC(=O)OC)C3=NC(=C4)[C@@H](C)[C@@H]3CCC(=O)NCC(O)CO)=C2)[C@@H]1C (stereo partly shown) [Compound 64, Palladium 3^1-oxo-15-methoxycarbonylmethyl-Rhodobacteriochlorin-13^1-(3-N-methylaminopropyl)amide-17^3-(2,3-dihydroxypropyl)amide]	560 nM	170 nM
CC[C@H]1C2=NC(=Cc3c(C(C)=O)c(C)c4[n]3[Pd][n]3c(c(C)c(C(=O)NCCN(C)C)c3=C(CC(=O)OC)C3=NC(=C4)[C@@H](C)[C@@H]3CCC(=O)NCCN(C)C)=C2)[C@@H]1C [Compound 36, Palladium 3^1-oxo-15-methoxycarbonylmethyl-Rhodobacteriochlorin-13^1, 17^3-di(2-N^2-dimethylaminoethyl)amide]	370 nM	150 nM
CC[C@H]1C2=NC(=Cc3c(C(C)=O)c(C)c4[n]3[Pd][n]3c(c(C)c(C(=O)NCC(O)CO)c3=C(CC(=O)OC)C3=NC(=C4)[C@@H](C)[C@@H]3CCC(=O)NCCNc3ccccn3)=C2)[C@@H]1C (stereo partly shown) [Compound 56, Palladium 3^1-oxo-15-methoxycarbonylmethyl-Rhodobacteriochlorin-13^1-(2,3-dihydroxypropyl)amide-17^3-(2-N-(2′-pyridyl)aminoethyl)amide]	790 nM	320 nM
CC(=O)O.CC[C@H]1C2=NC(=Cc3c(C(C)=O)c(C)c4[n]3[Pd][n]3c(c(C)c(C(=O)NCCN(C)C)c3=C(CC(=O)OC)C3=NC(=C4)[C@@H](C)[C@@H]3CCC(=O)NCCCO)=C2)[C@@H]1C [Compound 66, Palladium 3^1-oxo-15-methoxycarbonylmethyl-Rhodobacteriochlorin-13^1-(2-N^2-dimethylaminoethyl)amide-17^3-(3-hydroxypropyl)amide]	550 nM	200 nM
Palladium 3^1-oxo-15-methoxycarbonylmethyl-Rhodobacteriochlorin-13^1-(3-aminopropyl)amide-17^3-(2,3-dihydroxypropyl)amide [Compound 60]	620 nM	240 nM
CC[C@H]1C2=NC(=Cc3c(C(C)=O)c(C)c4[n]3[Pd][n]3c(c(C)c(C(=O)NCC(O)CO)c3=C(CC(=O)OC)C3=NC(=C4)[C@@H](C)[C@@H]3CCC(=O)NCCN)=C2)[C@@H]1C (stereo partly shown) [Compound 47, Palladium 3^1-oxo-15-methoxycarbonylmethyl-Rhodobacteriochlorin-13^1-(2,3-dihydroxypropyl)amide-17^3-(2-aminoethyl) amide]	450 nM	250 nM

Source: patent publication US8207154B2, “Catatonic bacteriochlorophyll derivatives” (Yeda Research and Development Co., Ltd., priority 2005, dated 2012)
